According to patent publication US9133435B2, “Method for induction/differentiation into photoreceptor cell” (RIKEN, priority 2007, dated 2015):
Values belong to the molecule of their own block, whether it stands above or below them.

Legend:
[1] = system: purified ES-derived Rx+ cells; experiment: Differentiation of ES-derived photoreceptor precursors into opsin+ cone and rhodopsin+ rod photoreceptors; type: cell-based, mouse; settings: for rod differentiation, factor added individually: after FACS purification and DAPT, acidic FGF 50 ng/ml, basic FGF 10 ng/ml, taurine 1 mM, shh 3 nM, RA 500 nM, from day 16, day 28
Procedure: (§1) For FACS (see below), until day 9, cell aggregates were incubated in a differentiation medium under suspension culture conditions. After FACS, 1−2×10^4 sorted cells were re-suspended in a differentiation medium containing 10% FCS, and to produce re-aggregated pellets, the suspension was centrifuged at 800 g for 10 minutes. After cultivation at 37° C. for 1 hour, three to five re-aggregated pellets per cm^2 were replated on a poly-D-lysine/laminin/fibronectin-coated culture slides with a differentiation medium supplemented with 10% FCS. On day 10, the culture medium was changed to a differentiation medium not containing FCS, and containing or not containing the gamma secretase inhibitor N—[N-(3,5-difluorophenacetyl)-L-alanyl]-S-phenylglycine t-butyl ester (DAPT, 10 μM, Calbiochem).
For photoreceptor differentiation, on day 16, the medium was replaced with a retinal culture medium containing the factors shown in FIG. 3a (66% E-MEM-HEPES (Sigma M7278), 33% HBSS (Gibco 24020-117), 1% FCS supplemented with N2, 5.75 mg/ml glucose, 200 μM L-glutamine, 100 U/ml penicillin, and 100 μg/ml streptomycin (Gibco)). aFGF (R & D Systems) and bFGF (R & D Systems) were added during differentiation for 16-24 days; taurine (Sigma), shh (R & D Systems), and RA (Sigma) were added during differentiation days 16-28. The medium was replaced with a fresh supply every 2 days.
(§2) Immunohistological staining was performed as described previously (reference documents A20, 24). The primary antibodies used in this study were as follows: • Anti-Crx (rat/polyclonal/1:200, reference document A6), • Anti-Ki67 (mouse/monoclonal/1:200/BD), • Anti-BrdU (mouse/monoclonal/1:50/BD), • Anti-active caspase-3 (rabbit/monoclonal/1:500/BD), • Anti-red/green opsin (rabbit/polyclonal/1:1000/Chemicon), • Anti-blue opsin (rabbit/polyclonal/1:500/Chemicon), • Anti-rhodopsin (RetP1; mouse/monoclonal/1:1000/SIGMA) and • Anti-Recoverin (rabbit/polyclonal/1:5000/Chemicon).
(§3) The immunoreactivity of each antibody was confirmed by immunostaining an appropriate retinal tissue as a positive control under the same conditions. Total cell counts were determined by counting nuclei stained by TOTO-3 or DAPI (Molecular Probes). Positive cells were counted in optical slice images prepared by confocal (Leica) or ApoTome (Zeiss) microscopy.
(§4) For statistical analyses, at least 2500 cells were examined in each experiment, which was performed at least 3 times. All statistical analyses were performed using GraphPad InStat version 3.0 (GraphPad Software Inc., San Diego, Calif., USA). The statistical significance of differences was determined by one-way analysis of variance (ANOVA) followed by Tukey's test for the experiments in FIG. 1f, by one-way ANOVA followed by Dunnett's multiple comparison test for the experiment in FIG. 3b, by two-way ANOVA followed by Bonferroni's test for the experiment in FIG. 1j-l. Probability values less than 5% were considered significant.

[2] = system: mouse ES cells; experiment: Induction of differentiation of mouse ES cells into neural cells (βII tubulin-positive cells); type: cell-based; settings: SB-431542 0.1 to 10 μM or CKI-7 1 to 100 μM, single agent
Procedure: Mouse ES cells were cultured in the presence of SB-431542 (0.1 to 10 μM) and/or CKI-7 (1 to 100 μM) under SFEB conditions. Five days after the start of the culture, the cells were recovered and re-suspended in a fresh differentiation medium, and, to produce re-aggregated pellets, the suspension was centrifuged at 800 g for 10 minutes. After cultivation at 37° C. for 1 hour, three to five re-aggregated pellets per cm^2 were replated onto poly-D-lysine/laminin/fibronectin-coated culture slides, along with differentiation medium. After cultivation for 5 days, the cells were fixed and stained with anti-βII tubulin antibody, and the ratio of βII tubulin-positive cells was determined under microscopy. The other experimental conditions were the same as those for Example 1.

[3] = system: FACS-purified ES-derived Rx-GFP+ retinal progenitor cells; experiment: Differentiation of FACS-purified ES-derived retinal progenitor cells into Crx+ photoreceptor precursors (immunostaining); type: cell-based, mouse
Procedure: Methods for mouse ES cell maintenance and differentiation in SFEB conditions were previously reported (reference documents A7, 20). For the sake of the SFEB/DLFA, Dkk1 (R & D Systems, 100 ng/ml, during days 0-5), LeftyA (R & D Systems, 500 ng/ml, during days 0-5), 5% FCS (JRH Biosciences, during days 3-5), and Activin-A (R & D Systems, 10 ng/ml, during days 4-5) were added to a differentiation medium (G-MEM, 5% KSR, 0.1 mM non-essential amino acids, 1 mM pyruvic acid, and 0.1 mM 2-mercaptoethanol) (reference document A6).
as §1
On day 9, SFEB/DLFA-treated ES cell aggregates were dissociated with trypsin (0.25%, Invitrogen) and DNaseI (10 μg/ml, Sigma) into single cells. After neutralization, the cells were re-suspended in HBSS containing 0.1% BSA and 5 μg/ml propidium iodide (PI, Sigma), and passed through a cell strainer (BD) as described previously (reference documents A7, 21). The cells were counted and sorted using FACS Aria (BD Biosciences), and data were analyzed using the FACS Diva software (BD Biosciences). Dead cells were excluded by gating forward and side scatter and PI staining. Cells with Rx-GFP fluorescence (band-pass filter: FITC, 530 nm) were sorted and further cultured. […]
as §3
as §4, with “All statistical analyses were performed using GraphPad InStat version 3.0 (GraphPad Software Inc., San Diego, Calif., USA).” left out, “Probability values less than 5% were considered significant.” left out

[4] = system: Retinae of E17.5 mouse; experiment: Tissue culture of embryonic retina treated with DAPT (Crx staining, RT-PCR); type: cell-based; settings: 10 μM DAPT
Procedure: FIG. 4 The gamma secretase inhibitor DAPT promotes the differentiation of photoreceptor precursors. Retinae of E17.5 mouse were treated, or not treated, with 10 μM DAPT under tissue culture conditions for 2-4 days. (a, b) Two days later, the retinae were stained for Crx (green) and TOTO-3 (blue). Many Crx^+ (green) photoreceptor precursors were found in the DAPT-treated retina (a), whereas several Crx^+ were found in non-treated retina (b). GC, ganglion cell layer; NBL, neuroblastic layer; ONL, outer nuclear layer. (c) RT-PCR analysis of retina treated or not treated with DAPT for 2 or 4 days. It was confirmed that the expression of Hes1 and Hes5 had been decreased in the DAPT-treated retina.
RT-PCR analysis was performed as reported previously (reference documents A7, 20). The primers used are as follows: […]

[5] = system: purified Rx+ cells; experiment: Ki67 expression, BrdU uptake and active caspase 3 in purified Rx+ cells; type: cell-based, mouse
Procedure: as §1
BrdU uptake was examined by culturing the cells in a medium containing 5 μg/ml BrdU for 24 hours before fixation.
as §2, §3, §4

[6] = system: monkey ES cells; experiment: Differentiation of monkey ES cells into retinal cells (SFEB culture, immunocytochemistry); type: cell-based, cynomolgus monkey; settings: day 40, Dkk-1 100 ng/ml, Lefty-A 500 ng/ml
Procedure: ES colonies were partially dissociated with 0.25% trypsin (in a PBS containing 1 mM CaCl2 and 20% KSR) into clumps (5 to 10 cells per clump). It is noticeable that when this clumps of ES cells were too large (for example, exceeding 50 cells per aggregate), the neural induction efficiency declined. When ES cells dispersed to single cells were used, the cell viability declined, and retinal cells could not efficiently be induced. ES clumps were incubated on a gelatin-coated dish for 30 minutes, whereby STO feeders were removed. ES clumps were plated on a dish of bacterial grade using an ES differentiation medium at a density of 6.7×10^3 aggregate per ml. The composition of the differentiation medium was as follows. [G-MEM (GIBCO), 10% KSR, Lot.1139720 and 1219101, 0.1 mM non-essential amino acids, 1 mM pyruvate and 0.1 mM 2-mercaptoethanol]. […]
Values are expressed as means±S.E.M. For statistic analysis, 100 to 200 colonies in each experiment were examined, each experiment being performed at least 3 times. […] For the experiments in FIG. 7b, statistical significance of difference was determined by one-way analysis of variance (ANOVA) followed by Dunnet's test. The data obtained from FIG. 8a, d, e, h and i were evaluated by unpaired t-test. […]

[7] = DAPT from day 10, retinal differentiation medium from day 16, day 28

Molecule: basic FGF: basic FGF (R & D Systems), soluble factor
rod differentiation, factor added individually [1]: promoted rod differentiation

Molecule: acidic FGF: acidic FGF (R & D Systems), soluble factor
rod differentiation, factor added individually [1]: promoted rod differentiation

Molecule: NCCNS(=O)(=O)c1ccc(Cl)c2ccncc12 [CKI-7, N-(2-aminoethyl)-5-chloro-isoquinoline-8-sulfonamide]
number of βII tubulin-positive cells [2]: increased

ratio of Crx+ photoreceptor precursors in embryonic retinal tissue ([4]; tissue culture): considerably increased
proportion of cells positive for active caspase ([5]; day 11): 0.17±0.04%
proportion of cells positive for active caspase ([5]; day 12): 0.13±0.04%
proportion of cells positive for active caspase ([5]; day 14): 0.10±0.07%
proportion of cells positive for active caspase ([5]; day 16): 0.10±0.01%
proportion of cells positive for active caspase ([5]; day 18): 0.13±0.02%
proportion of cells positive for active caspase ([5]; day 20): 0.10±0.15%
proportion of cells positive for active caspase, DAPT-treated versus non-treated ([5]; days 11-20, Ki67+ population): no significant difference
Molecule: C[C@H](NC(=O)Cc1cc(F)cc(F)c1)C(=O)N[C@H](C(=O)OC(C)(C)C)c1ccccc1 [DAPT, N—[N-(3,5-difluorophenacetyl)-L-alanyl]-S-phenylglycine t-butyl ester]
frequency of Crx+ cell aggregates ([3]; 10 μM DAPT, most effective on days 10 to 20): significantly raised
Crx expression in Rx-GFP− cells ([3]; Rx-GFP− cells treated with DAPT from day 10, day 20): did not express Crx
promotion of differentiation into Crx+ photoreceptor precursors in non-FACS-sorted cells ([3]; non-FACS-sorted ES cell-derived neural retinal progenitor cells treated with DAPT): no evident promotion
percentage of Crx+ cells ([3]; sorted Rx-GFP+ cells, 10 μM DAPT from day 10, determined on day 20): 22.4±2.9%
expression of the differentiation inhibitors Hes1 and Hes5 ([4]; tissue culture 2 or 4 days, RT-PCR): suppressed
Ki67+ cell population versus non-treated cells ([5]; day 14 and thereafter, DAPT from day 10): smaller
BrdU+ cells versus non-treated control ([5]; days 14-20, BrdU uptake 24 hours): fewer
ES-derived cells expressing blue opsin [1, 7]: 10.7±1.6%
ES-derived cells expressing red/green opsin [1, 7]: 11.5±2.0%
cells expressing rhodopsin ([1]; DAPT only, no further factors, day 28): 5.5±0.5%

Molecule: NCCS(=O)(=O)O [taurine]
rod differentiation, factor added individually [1]: promoted rod differentiation

Molecule: NC(=O)c1ccc(-c2nc(-c3ccc4c(c3)OCO4)c(-c3ccccn3)[nH]2)cc1 [SB-431542]
number of βII tubulin-positive cells [2]: increased

B1: Lefty-A: Lefty-A protein, nodal antagonist (protein, UniProt O00292 77-366, looked up)
Left-right determination …: RFSQSFREVAGRFLASEASTHLLVFGMEQRLPPNSELVQAVLRLFQEPVPKAALHRHGRLSPRSAQARVTVEWLRVRDDGSNRTSLIDSRLVSVHESGWKAFDVTEAVNFWQQLSRPRQPLLLQVSVQREHLGPLASGAHKLVRFASQGAPAGLGEPQLELHTLDLRDYGAQGDCDPEAPMTEGTRCCRQEMYIDLQGMKWAKNWVLEPPGFLAYECVGTCQQPPEALAFNWPFLGPRQCIASETASLPMIVSIKEGGRTRPQVVSLPNMRVQKCSCASDGALVPRRLQP
ratio of Mitf+ colonies [6]: 50.8±5.0%

B2: Dkk-1: Recombinant Dkk-1 protein, Wnt antagonist (protein, UniProt O94907 32-266, looked up)
Dickkopf-related protein 1: TLNSVLNSNAIKNLPPPLGGAAGHPGSAVSAAPGILYPGGNKYQTIDNYQPYPCAEDEECGTDEYCASPTRGGDAGVQICLACRKRRKRCMRHAMCCPGNYCKNGICVSSDQNHFRGEIEETITESFGNDHSTLDGYSRRTTLSSKMYHTKGQEGSVCLRSSDCASGLCCARHFWSKICKPVLKEGQVCTKHRRKGSHGLEIFQRCYCGEGLSCRIQKDHHQASNSSRLHTCQRH
ratio of Mitf+ colonies [6]: 35.3±4.4%
